Measurements: patent US4803224A, “Antiviral antibiotic complex” (Bristol-Myers Company, priority 1986, dated 1989)
“Also recorded” adds a separate entry of the source. Like-named read-outs stand apart in the source and are kept apart here.

Tests used:
Format in all cases: cell-based
[1] = tested on: Mycobacterium smegmatis strain M6-3; test: Paper disc-agar diffusion method
From the text: (§1) The production of BU-2231 in the fermentation medium may be followed readily during the course of fermentation by the paper disc-agar diffusion method using Bacillus subtilis PCI-219 and Mycobacterium smegmatis strain M6-3 as test organisms. The BU-2231 A and BU-2231 B components of BU-2231 antibiotic complex as well as the co-produced aminoglycoside complex (also referred to as the "nebramycin factors" or "nebramycin components") are believed to be active against B. subtilis but only the BU-2231 A and B comppnents show activity against Mycobacterium smegmatis strain M6-3.

[2] = tested on: Bacillus subtilis PCI-219; test: Paper disc-agar diffusion method; settings: "are believed to be"
From the text: as §1

[3] = tested on: herpes simplex virus type I (HSV-1); test: Plaque reduction assay, HSV-1-Vero cell system; settings: for Antiviral activity (in words): HSV-1, relative to the compounds tested; for Plaque reduction assay, Activity vs HSV-1 (ID50): Vero cell
[4] = tested on: herpes simplex virus type I (HSV-1); test: Dye-uptake assay, HSV-1-Vero cell system; settings: for Dye-uptake assay, Activity vs HSV-1 (ID50): Vero cell
Experimental: (§2) The results are shown in Table 2 together with their cytotoxicity against the host cells.
In order to examine the relationship between peptide chain length and antiviral activity, a partial acid hydrolysis of BU-2231 V was carried out by heating with 6N HCl at 100 deg. C. for one hour. The hydrolyzate was chromatographed on CM-cellulose to yield 8 peptide fragments. Number of D-α,γ-diaminobutyric acid residues in each peptide was determined by the DNP method and antiviral activity against HSV-1 assessed by the dye-uptake assay (Table 4).

Vero cell [5] = test: Cytotoxicity against host cells (dye-uptake assay)
From the text: as §2

[6] = tested on: Staphylococcus aureus BX-1633-2; test: 2-fold serial broth dilution, nutrient broth
[7] = tested on: Staphylococcus aureus Smith; test: 2-fold serial broth dilution, nutrient broth
[8] = tested on: Haemophilus influenza A2241; test: 2-fold serial broth dilution, nutrient broth
[9] = tested on: Pseudomonas aeruginosa A9930; test: 2-fold serial broth dilution, nutrient broth
[10] = tested on: Enterobacter cloacae A9656; test: 2-fold serial broth dilution, nutrient broth
[11] = tested on: Klebsiella pneumoniae A9977; test: 2-fold serial broth dilution, nutrient broth
[12] = tested on: Streptococcus faecalis A9612; test: 2-fold serial broth dilution, nutrient broth
Escherichia coli Juhl = test: 2-fold serial broth dilution, nutrient broth
[13] = tested on: Serratia marcescens A20019; test: 2-fold serial broth dilution, nutrient broth
Vero cell [14] = test: Cytotoxicity against host cells (plaque reduction assay)
From the text: as §2

Proteus mirabilis A9554 = test: 2-fold serial broth dilution, nutrient broth
[15] = tested on: Gram-positive and Gram-negative bacteria; test: In vitro antibacterial activity, 2-fold serial broth dilution, overall

Molecule | Activity against Mycobacterium smegmatis strain M6-3 (in words) [1] | Activity against B. subtilis (in words) [2] | Plaque reduction assay, Activity vs HSV-1 (ID50) [3] [mg/L] | Dye-uptake assay, Activity vs HSV-1 (ID50) [4] [mg/L] | MIC by TDT [6] [mg/L] | MIC by TDT [7] [mg/L] | MIC by TDT [8] [mg/L] | MIC by TDT [9] [mg/L] | MIC by TDT [10] [mg/L] | MIC by TDT [11] [mg/L] | MIC by TDT [12] [mg/L] | MIC by TDT (Escherichia coli Juhl) [mg/L] | MIC by TDT [13] [mg/L] | MIC by TDT (Proteus mirabilis A9554) [mg/L] | Antibacterial activity (in words) [15] | other results
Cc1c(N)nc([C@H](CC(N)=O)NC[C@H](N)C(N)=O)nc1C(=O)N[C@H](C(=O)N[C@H](C)[C@@H](O)CC(=O)N[C@H](C(=O)NC(O[C@@H]1O[C@@H](C)[C@@H](N)[C@@H](O)[C@H]1O)C(O)c1nc(-c2nc(C(=O)NCCCC(N)CC(=O)NCCCNCCCCN)cs2)cs1)[C@@H](C)O)[C@H](O[C@@H]1O[C@@H](CO)[C@@H](O)[C@H](O)[C@@H]1O[C@H]1O[C@H](CO)[C@@H](O)[C@H](OC(N)=O)[C@@H]1O)c1c[nH]cn1 (stereo partly shown) [BU-2231 A] | show activity | active |  |  |  |  |  |  |  |  |  |  |  |  |  | 
Cc1c(N)nc([C@H](CC(N)=O)NC[C@@H](N)C(N)=O)nc1C(=O)N[C@H](C(=O)N[C@H](C)[C@@H](O)CC(=O)N[C@@H](C(=O)NC(O[C@@H]1O[C@@H](C)[C@@H](N)[C@@H](O)[C@H]1O)C(O)c1nc(-c2nc(C(=O)NCCCNCCCCN)cs2)cs1)[C@@H](C)O)C(O[C@@H]1O[C@@H](CO)[C@H](O)[C@@H](O)[C@@H]1O[C@H]1O[C@H](CO)[C@@H](O)[C@@H](OC(N)=O)[C@@H]1O)c1cnc[nH]1 (stereo partly shown) [BU-2231 B] | show activity | active |  |  |  |  |  |  |  |  |  |  |  |  |  | 
α-poly-L-lysine [α-Poly-L-lysine (MW: 25,000)] |  |  | 1.8 | > 20 |  |  |  |  |  |  |  |  |  |  |  | Antiviral activity (in words) ([3]; listed as higher molecular α-poly-L-lysine): slightly less active than BU-2231 V
ε-poly-L-lysine |  |  | 2.6 | 2.7 | 6.3 | 6.3 | 12.5 | 12.5 | 25 | 6.3 | 50 | 6.3 | 25 | 6.3 | moderate inhibitory activity; also recorded: comparable | Dye-uptake assay, Cytotoxicity vs Vero cell (TCID50) (Vero cell [5]): > 100 µg/mL; Antiviral activity (in words) [3]: slightly less active than BU-2231 V; Antiviral activity (in words) ([4]; HSV-1): comparably active; Plaque reduction assay, Cytotoxicity vs Vero cell (TCID50) (Vero cell [14]): 70 µg/mL
α-poly-L-lysine [α-Poly-L-lysine (MW: 3,500)] |  |  | 42 | 100 | 25 | 12.5 | 100 | > 100 | > 100 | 12.5 | > 100 | 12.5 | > 100 | 50 | moderate inhibitory activity | Antiviral activity (in words) ([3]; listed as lower molecular α-poly-L-lysine): least active; Antibacterial activity (in words) ([15]; listed as α-poly-L-lysines): little weaker than others
NCC[C@@H](N)C(=O)O [D-α,γ-DAB, D-α,γ-diaminobutyric acid] |  |  |  |  |  |  |  |  |  |  |  |  |  |  |  | IC50 ([4]; Human alphaherpesvirus 1, Vero, partial hydrolyzates of BU-2231V, read-out: Anti-HSV-1 activity ID50): > 660 mg/L
